A short description of data set [1]: Stability in simulated gastric fluid (SGF), RP-HPLC. The format is in vitro ADME. The conditions noted are these: 37 °C, read-out: unmetabolized peptide remaining (remained stable). Here is the method:
The preparation of the media was performed as described before in Elfgen et al.[24]. Preparation of simulated gastric and intestinal fluid (SGF & SIF) was done according to the European Pharmacopoeia 7.0. Plasma samples were obtained from human blood of a volunteer donor. Pooled human liver microsomes were purchased from Sekisui XenoTech (Kansas City, USA; H1000, Lot: 0710494 and 1210270; H1500, Lot: 1210079), from Sigma-Aldrich (St. Louis, USA; M0692, Lot: SLBL1433V; M0567, Lot: SLBR2706V and SLBN7300V) and from Gibco, Thermo Fisher Scientific (Waltham, USA; HMMCPL, Lot: PL050; HMMCPM, Lot: PL039). Pooled Sprague Dawley rat liver microsomes were purchased from Sigma-Aldrich (St. Louis, USA; M9066, Lot: SLBN0707V) and from Gibco, Thermo Fisher Scientific (Waltham, USA; RTMCPL, Lot: RT053). Pooled cynomolgus monkey liver microsomes were purchased from Gibco, Thermo Fisher Scientific (Waltham, USA; MKMCPL, Lot: MK062) and from Sekisui XenoTech (Kansas City, USA; P2000, Lot: 1210334). […]
For sample analysis from stability tests (see 2.3), mobile phases were acetonitrile (A) and water (B) each supplemented with 0.15% trifluoroacetic acid (TFA) (v/v). The samples were measured isocratically at 10% solvent A for 30 min. […] A chromatographic metabolite profile of L-RD2 in SIF was recorded with the same mobile phases but using a gradient from 0 to 30% solvent A in 30 min.

Data set [2] can be described thus: Stability in human liver microsomes, RP-HPLC / UHPLC-ESI-QTOF-MS. It is filed as in vitro ADME. How it is done: (§1) The preparation of the media was performed as described before in Elfgen et al.[24]. Preparation of simulated gastric and intestinal fluid (SGF & SIF) was done according to the European Pharmacopoeia 7.0. Plasma samples were obtained from human blood of a volunteer donor. Pooled human liver microsomes were purchased from Sekisui XenoTech (Kansas City, USA; H1000, Lot: 0710494 and 1210270; H1500, Lot: 1210079), from Sigma-Aldrich (St. Louis, USA; M0692, Lot: SLBL1433V; M0567, Lot: SLBR2706V and SLBN7300V) and from Gibco, Thermo Fisher Scientific (Waltham, USA; HMMCPL, Lot: PL050; HMMCPM, Lot: PL039). Pooled Sprague Dawley rat liver microsomes were purchased from Sigma-Aldrich (St. Louis, USA; M9066, Lot: SLBN0707V) and from Gibco, Thermo Fisher Scientific (Waltham, USA; RTMCPL, Lot: RT053). Pooled cynomolgus monkey liver microsomes were purchased from Gibco, Thermo Fisher Scientific (Waltham, USA; MKMCPL, Lot: MK062) and from Sekisui XenoTech (Kansas City, USA; P2000, Lot: 1210334). The liver microsomes were diluted in an NADPH regenerating system (NRS).
(§2) For the stability tests, 150 µM RD2 or L-RD2 was incubated in SGF, SIF, human plasma and human liver microsomes in triplicate at 37 °C with slight shaking for different time periods. To prevent microbial contaminations in long-term plasma incubations, 0.1% sodium azide was added to the solutions. Microsomal long-term activity was examined by incubating microsomes without peptide for up to 24 h and adding L-RD2 after 8 and 24 h. The ability to degrade L-RD2 served as indicator for their activity. For the comparison of RD2 metabolite profiles across species, 150 µM RD2 was incubated in human, rat and cynomolgus liver microsomes at 37 °C for 2 and 24 h. The peptides were extracted by precipitating the proteins with trichloroacetic acid (TCA) and subsequent centrifugation, as described previously in Elfgen et al.[24]. Peptides immediately extracted from the media and precipitated media without peptides served as controls.
For sample analysis from stability tests (see 2.3), mobile phases were acetonitrile (A) and water (B) each supplemented with 0.15% trifluoroacetic acid (TFA) (v/v). The samples were measured isocratically at 10% solvent A for 30 min. This run conditions allowed us to detect smallest chemical changes including the differentiation between the original compound and a deamidated version (Fig. S1). RD2 and L-RD2 can potentially be deamidated at two sites, the C-terminus and the asparagine at position seven. Peak areas of the unmetabolized peptides after different incubation times were normalized to the peptides’ peak areas after direct extraction from the media. […] A chromatographic metabolite profile of L-RD2 in SIF was recorded with the same mobile phases but using a gradient from 0 to 30% solvent A in 30 min. […]

Data set [3] is described as follows: Comparison of RD2 metabolite profiles across species: cynomolgus liver microsomes. It is filed as in vitro ADME, cynomolgus monkey. How it is done:
as §1
as §2, with “The peptides were extracted by precipitating the proteins with trichloroacetic acid (TCA) and subsequent centrifugation, as described previously in Elfgen et al.[24]. Peptides immediately extracted from the media and precipitated media without peptides served as controls.” left out
For the comparison of RD2 metabolite profiles across species (see 2.3), mobile phases were acetonitrile (A) and water (B) each supplemented with 0.1% TFA. […] The amount of the purified HSM-3 was calculated based on a calibration curve of 10 to 100 µM RD2 extracted from human liver microsomes.
A general note: Liver microsomes are vesicles of endoplasmic reticulum, rich in cytochrome P450 enzymes.

Data set [4] addresses CYP2D6 (Homo sapiens, UniProt P10635). Description: CYP isoform inhibition in human liver microsomes (Cyprotex). The format is in vitro ADME. Here is the method:
The experiments were performed by Cyprotex. […] All assays were performed sevenfold.

Data set [5] is described as follows: MTT cell viability assay. The format is cell-based, rat. The conditions noted are these: rat, cell viability. How it is done:
(§3) Rat PC12 (pheochromocytoma) cells (Leibniz Institute DSMZ, Braunschweig, Germany) were cultivated in Dulbecco’s Modified Eagle Medium (DMEM) supplemented with 10% fetal bovine serum, 5% horse serum and 1% penicillin-streptomycin. 10,000 cells per well were seeded on collagen A-coated 96-well plates (Thermo Fisher Scientific, Waltham, USA) and incubated in a 95% humidified atmosphere with 5% CO2 at 37 °C for 24 h. Samples with untreated RD2 and RD2 or HSM-3 purified from human liver microsomes (see 2.8) in 10 mM sodium phosphate buffer (pH 7.4) were prepared. Buffer without peptides and Triton X-100 (cytotoxic compound) served as controls. The samples were added to the PC12 cells in quadruple and incubated in 95% humidified atmosphere with 5% CO2 at 37 °C for 24 h. Final concentrations were 2 µM untreated RD2, purified RD2, purified HSM-3 and 0.125% Triton X-100. Cell viability was then measured using the Cell Proliferation Kit I (MTT) (Roche, Basel, Switzerland) according to the manufacturer’s instruction. The final absorbance of the formazan product was determined as the absorbance at 570 nm subtracted by the absorbance at 660 nm. All results were normalized to cells that were treated with buffer only. The experiments were performed in triplicate.
In general terms: Tetrazolium dyes change colour on reduction, which living cells bring about.

Data set [6] has as its system Rat PC12 (pheochromocytoma) cells. Description: MTT cell viability assay. The format is cell-based. The conditions noted are these: rat, 24 h, 2 µM. Here is the method:
as §3

Data set [7] has as its system rat. On the set-up: method as in complete study will be published elsewhere. The conditions noted are these: oral, up to high doses, ref complete study will be published elsewhere; cited from earlier work.
Data set [8] addresses CYP2C9 (Homo sapiens, UniProt P11712). Nature of the data set: CYP isoform inhibition in human liver microsomes (Cyprotex).
Description: The experiments were performed by Cyprotex. […] The reactions were terminated by methanol and the generated metabolites were monitored by LC-MS/MS or fluorescence. […] All assays were performed sevenfold. […] For all other substrates, the termination plates were centrifuged at 2,500 rpm and 4 °C for 30 min and aliquots of the supernatants were combined and transferred to fresh 96-well plates. Formic acid in deionized water (final concentration 0.1%) containing internal standard was added to the supernatants prior to cassette analysis by LC-MS/MS. A decrease in the formation of the metabolite compared to the vehicle control was used to calculate the IC50 values.

Non-standard residues stand in square brackets, D forms with d. Residues, ends and D or L forms follow the SMILES beside them.

Consider one compound from paper PMC6450887, “Metabolic resistance of the D-peptide RD2 developed for direct elimination of amyloid-β oligomers” (Scientific Reports, 2019).

Sequence of CYP2D6 (P10635 whole entry, canonical isoform): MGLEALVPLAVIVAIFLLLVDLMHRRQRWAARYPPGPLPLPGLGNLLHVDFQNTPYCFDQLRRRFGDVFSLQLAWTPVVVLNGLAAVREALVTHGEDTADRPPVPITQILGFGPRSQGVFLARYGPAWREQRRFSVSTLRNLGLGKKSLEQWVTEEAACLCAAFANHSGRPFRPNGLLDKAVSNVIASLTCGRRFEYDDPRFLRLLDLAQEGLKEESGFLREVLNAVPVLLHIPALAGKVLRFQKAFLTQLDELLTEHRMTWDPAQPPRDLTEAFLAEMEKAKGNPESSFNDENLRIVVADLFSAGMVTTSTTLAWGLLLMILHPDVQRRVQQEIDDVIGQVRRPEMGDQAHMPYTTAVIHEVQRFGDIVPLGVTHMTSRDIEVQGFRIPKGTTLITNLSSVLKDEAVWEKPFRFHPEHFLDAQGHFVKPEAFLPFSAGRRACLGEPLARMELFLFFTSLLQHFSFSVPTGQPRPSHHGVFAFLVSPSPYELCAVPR
Sequence of CYP2C9 (P11712 whole entry, canonical isoform): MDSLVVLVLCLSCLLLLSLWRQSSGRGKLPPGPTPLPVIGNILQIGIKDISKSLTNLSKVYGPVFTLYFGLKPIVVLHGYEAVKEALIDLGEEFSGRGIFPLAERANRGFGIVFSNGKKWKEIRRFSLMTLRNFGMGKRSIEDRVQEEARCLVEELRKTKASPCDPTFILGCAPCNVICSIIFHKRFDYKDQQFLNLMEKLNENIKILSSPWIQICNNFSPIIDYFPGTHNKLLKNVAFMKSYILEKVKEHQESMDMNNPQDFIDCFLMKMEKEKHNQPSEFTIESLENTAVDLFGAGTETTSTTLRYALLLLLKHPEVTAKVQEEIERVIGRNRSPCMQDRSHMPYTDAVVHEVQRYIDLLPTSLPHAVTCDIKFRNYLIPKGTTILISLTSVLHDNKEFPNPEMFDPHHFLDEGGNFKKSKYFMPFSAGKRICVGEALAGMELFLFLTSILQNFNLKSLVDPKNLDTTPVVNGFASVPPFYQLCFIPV

The amount remaining is what is left of the initial amount, in per cent. The term inhibition denotes the change of the read-out against control, counted positive when it falls. In general, viability refers to a per cent measure of how many cells are alive, often set against a control. In general, cell viability refers to a per cent measure of how many cells are alive, often set against a control. For `CC(C)C[C@@H](NC(=O)[C@H](NC(=O)[C@H]1CCCN1)[C@H](C)O)C(=O)N[C@H](Cc1c[nH]cn1)C(=O)N[C@@H](C(=O)N[C@H](Cc1c[nH]cn1)C(=O)N[C@H](CC(N)=O)C(=O)N[C@H](CCCNC(=N)N)C(=O)N[C@H](CCCNC(=N)N)C(=O)N[C@H](CCCNC(=N)N)C(=O)N[C@H](CCCNC(=N)N)C(=O)N[C@H](CCCNC(=N)N)C(N)=O)[C@H](C)O` [RD2, ptlhthnrrrrr] (H-[dP][dT][dL][dH][dT][dH][dN][dR][dR][dR][dR][dR]-NH2), in data set [1], the share remaining at 24 h, 150 µM was ≥ 97%. Also, the peptide metabolized in data set [2] (150 µM, 37 °C, within 24 h) was determined as 33 ± 3%. In addition, in data set [2] (UHPLC-ESI-QTOF-MS), the “deamidation in human liver microsomes” value is “not deamidated”. Further, the “metabolization of RD2 after 2 h” value in data set [3] (cynomolgus liver microsomes, 150 µM, 2 h) is reported as “unmetabolized”. Further, in data set [3] (monkey, pooled cynomolgus monkey liver microsomes, cynomolgus samples, 24 h, read-out: decrease of the intensity of the RD2 peak), the metabolised at 24 h, 150 µM turned out to be 9 ± 2%. For the same compound, the “inhibition of CYP2D6” value in data set [4] (concentration range 0 to 25 µM) is recorded as “did not inhibit”. In addition, the inhibition at 0.25 µM in data set [4] (human, human liver microsomes, 0.25 µM RD2) was found to be 1.33%; in data set [8] (human, human liver microsomes), 6.15%. In addition, the inhibition at 1 µM in data set [4] (human, human liver microsomes, 1 µM RD2) is 0.671%; in data set [8] (human, human liver microsomes) it was -0.871%. The inhibition at 2.5 µM in data set [4] (human, human liver microsomes, 2.5 µM RD2) stood at 3.53%; in data set [8] (human, human liver microsomes), 0.607%. Moreover, the inhibition at 10 µM was -5.9% in data set [4] (human, human liver microsomes, 10 µM RD2) and -7.38% in data set [8] (human, human liver microsomes). The inhibition at 25 µM in data set [4] (human, human liver microsomes, 25 µM RD2) is -9.57%; in data set [8] (human, human liver microsomes), -26.8%. The same compound returned a viability at 24 h, 2 µM in data set [5] of 99 ± 4%. Also, the cell viability in data set [6] turned out to be 93 ± 6%. In data set [7], the “toxic effects of orally administered RD2” value is “does not cause toxic effects up to high doses”. In addition, in data set [8] (concentration range 0 to 25 µM), the “inhibition of CYP2C9” value is on record as “did not inhibit”.
